Where two headings read alike, the source gives them in different places.
Experiments:
D4.4 receptor = biological target: T1, D4.4 receptor (Homo sapiens, UniProt P21917); experiment: D4 receptor functional antagonism, cAMP level by fluorescence; type: cell-based; details: ratio of binding constants
T1 sequence (P21917 1-419): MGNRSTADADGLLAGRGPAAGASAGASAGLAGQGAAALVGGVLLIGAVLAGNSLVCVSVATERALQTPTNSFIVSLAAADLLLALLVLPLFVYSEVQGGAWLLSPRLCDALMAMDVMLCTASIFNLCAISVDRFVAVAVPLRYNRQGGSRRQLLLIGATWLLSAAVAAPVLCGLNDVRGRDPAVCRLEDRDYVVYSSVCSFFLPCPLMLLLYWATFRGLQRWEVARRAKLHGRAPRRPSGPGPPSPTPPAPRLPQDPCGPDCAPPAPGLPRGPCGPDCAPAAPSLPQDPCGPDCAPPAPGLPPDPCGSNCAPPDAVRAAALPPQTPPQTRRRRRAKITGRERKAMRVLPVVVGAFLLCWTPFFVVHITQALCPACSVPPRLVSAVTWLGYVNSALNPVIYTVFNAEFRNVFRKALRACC
Description: (§1) Response for cells expressing D2 receptors was determined as the change in cell conductance caused by the redistribution of intracellular calcium. For D4 receptor, the response criterion was the level of the secondary messenger, cAMP, determined by fluorescence after lysis of the cell expressing the receptor.

[1] = Leucht et al., Lancet 2013; cited from earlier work
H1 receptor = H1 receptor (Homo sapiens, UniProt P35367); experiment: H1 receptor functional activity, Fluo-4 NW Ca2+ fluorescence
Chain of H1 receptor (P35367 whole entry): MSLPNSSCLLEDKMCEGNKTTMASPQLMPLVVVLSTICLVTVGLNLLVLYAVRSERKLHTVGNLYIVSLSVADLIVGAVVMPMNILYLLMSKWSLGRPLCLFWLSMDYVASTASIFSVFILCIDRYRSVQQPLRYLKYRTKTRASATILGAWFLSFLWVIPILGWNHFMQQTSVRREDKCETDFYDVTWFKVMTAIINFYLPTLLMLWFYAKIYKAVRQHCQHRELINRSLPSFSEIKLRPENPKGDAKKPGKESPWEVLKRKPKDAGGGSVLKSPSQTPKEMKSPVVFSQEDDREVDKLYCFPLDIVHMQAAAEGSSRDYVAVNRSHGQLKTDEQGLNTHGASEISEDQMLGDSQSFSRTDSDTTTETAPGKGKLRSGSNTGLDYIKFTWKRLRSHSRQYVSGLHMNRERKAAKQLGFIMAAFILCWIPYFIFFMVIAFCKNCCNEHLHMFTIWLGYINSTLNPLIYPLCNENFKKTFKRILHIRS
Description: The functional activity against H1 receptor was determined according to the fluorescence of Fluo-4 NW indicator introduced into cells, induced by a change in Ca^2+ ion concentration in the cytosol.

[2] = Metabolism and tissue distribution of fluoroclozapine after single oral administration; details: rats, single oral 10 mg/kg fluoroclozapine
miniature pigs = experiment: Maximum tolerated dose by dose escalation; type: in vivo; details: extrapolated from miniature pigs
Description: (§2) To assess the safety of halogen derivatives of clozapine, the maximum tolerated dose (MTD) for miniature pigs was determined.
(§3) Initially, the pharmaceutical composition was administered at a dose of 0.53 mg/kg for 7 days. Then, on the 8th day, the administered dose of the pharmaceutical composition was increased to 1 mg/kg. After that, the dose was increased by 0.5 mg/kg every 1st, 3rd and 5th days of the seven-day cycle until an observable intoxication was noted.

[3] = Maximum tolerated dose by dose escalation; type: in vivo, miniature pigs; details: pig, in vivo, miniature pigs, dose escalation
Description: as §2, §3

rats = experiment: Sub-chronic toxicity, blood composition / neutrophil kinetics; type: in vivo; details: intragastric 5 mg/kg daily for 28 days
Description: The neutrophil kinetics were studied within comparative tests of sub-chronic toxicity. Studies were conducted in rats upon intragastric administration of substances at a dose of 5 mg/kg. The test substances were administered daily for 28 days. Each experimental group composed of 10 animals of each sex.

M1 receptor = biological target: T2, M1 receptor (Homo sapiens, UniProt P11229); experiment: M1 muscarinic receptor activation, Fluo-4 NW Ca2+ fluorescence; type: cell-based; details: FIG. 6
T2 sequence (P11229 1-460): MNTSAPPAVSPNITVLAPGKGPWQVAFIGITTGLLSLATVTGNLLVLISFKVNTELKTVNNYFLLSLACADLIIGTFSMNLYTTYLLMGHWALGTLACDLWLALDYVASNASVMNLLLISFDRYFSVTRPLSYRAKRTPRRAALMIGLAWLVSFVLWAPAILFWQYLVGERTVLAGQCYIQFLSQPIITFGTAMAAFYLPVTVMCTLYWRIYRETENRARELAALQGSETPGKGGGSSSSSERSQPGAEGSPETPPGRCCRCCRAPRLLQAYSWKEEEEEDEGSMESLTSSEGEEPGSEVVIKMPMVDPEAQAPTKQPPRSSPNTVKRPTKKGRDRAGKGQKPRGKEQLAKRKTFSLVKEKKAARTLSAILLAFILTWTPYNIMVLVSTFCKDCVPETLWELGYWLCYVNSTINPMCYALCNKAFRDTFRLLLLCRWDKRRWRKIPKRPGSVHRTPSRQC
Description: The activity was determined according to the fluorescence of Fluo-4 NW indicator introduced into cells, induced by a change in Ca^2+ ion concentration in the cytosol.

mice = experiment: Amphetamine-induced locomotion inhibition (ALI), model of bipolar disorder; type: in vivo
Source text: The ability of drugs to inhibit amphetamine-induced locomotor activity (amphetamine-induced locomotion inhibition, ALI) is a consequence of their blocking effect on dopamine receptors. Amphetamine causes a disruption of the reuptake of monoamine neurotransmitters and their accumulation in the intersynaptic space; blockade of dopamine receptors by antagonists neutralizes the excessive stimulation of dopamine signaling pathways. ALI is the basic test based on the dopamine model of bipolar disorder, and allows to evaluate the ability of drug candidates to bind to brain dopamine receptors in vivo.
[…]. After that, 3 mg/kg of d-amphetamine were administered intraperitoneally to the animals and the record of the activity was resumed. The distance (in cm) travelled by the animal in the first 60 minutes after administration of antipsychotic drugs and the distance travelled in the next hour after d-amphetamine administration were estimated.

CF-1 mice = experiment: Sedation: total distance travelled after oral administration; type: in vivo
Source text: The results of the in vitro experiments given in Example 4 have been confirmed by the studies of sedation.

5HT2A receptor = 5HT2A receptor (Homo sapiens, UniProt P28223); experiment: 5HT2A receptor functional antagonism, cAMP level by fluorescence; type: cell-based
Chain of 5HT2A receptor (P28223 whole entry): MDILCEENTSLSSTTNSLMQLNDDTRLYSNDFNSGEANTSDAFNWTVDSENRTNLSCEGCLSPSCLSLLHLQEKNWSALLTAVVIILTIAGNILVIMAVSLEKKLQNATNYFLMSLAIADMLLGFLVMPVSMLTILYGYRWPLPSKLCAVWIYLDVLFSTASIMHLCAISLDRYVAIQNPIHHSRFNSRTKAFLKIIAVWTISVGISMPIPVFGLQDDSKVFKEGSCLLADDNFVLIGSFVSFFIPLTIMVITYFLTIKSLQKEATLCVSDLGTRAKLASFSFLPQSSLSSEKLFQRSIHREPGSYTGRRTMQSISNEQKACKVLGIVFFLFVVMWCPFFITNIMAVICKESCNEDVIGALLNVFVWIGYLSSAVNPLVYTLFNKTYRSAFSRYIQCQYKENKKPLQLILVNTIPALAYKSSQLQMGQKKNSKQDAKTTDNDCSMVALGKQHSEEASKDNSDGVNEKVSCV
Description: as §1, with “determined by” for “determined as”, “For 5HT2A” for “For D4”

muscarinic M4 receptor = biological target: T3, muscarinic M4 receptor (Homo sapiens, UniProt P08173); experiment: M4 muscarinic receptor functional experiments, cAMP level; type: cell-based
T3 sequence (P08173 1-479): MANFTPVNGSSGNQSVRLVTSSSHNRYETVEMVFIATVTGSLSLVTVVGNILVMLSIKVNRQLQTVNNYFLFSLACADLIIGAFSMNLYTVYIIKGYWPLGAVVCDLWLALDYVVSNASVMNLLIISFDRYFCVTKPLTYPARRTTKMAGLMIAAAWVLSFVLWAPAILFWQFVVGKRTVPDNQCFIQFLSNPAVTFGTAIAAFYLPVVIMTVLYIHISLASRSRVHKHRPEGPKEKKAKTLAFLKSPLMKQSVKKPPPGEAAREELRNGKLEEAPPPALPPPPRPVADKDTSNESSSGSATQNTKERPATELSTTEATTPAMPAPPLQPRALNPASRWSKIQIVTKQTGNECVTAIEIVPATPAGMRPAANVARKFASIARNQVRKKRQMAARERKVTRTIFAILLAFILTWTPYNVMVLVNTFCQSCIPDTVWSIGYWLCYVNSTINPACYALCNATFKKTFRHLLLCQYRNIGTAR
Description: The side effect of M4 muscarinic receptor agonists is intense salivation (sialorrhea). […] Curves of response dependence on the concentration of the compound for the receptor were built; the response criterion was the level of the secondary messenger—cAMP, which is determined by fluorescence after cell lysis expressing the receptor.

[4] = female, read-out: MTD (females)

SMILES	increase of the risk of sedation [1] [times]	Therapeutic window width (Kb, H1/Kb, 5HT2A) (H1 receptor)	corresponding MTD for a human (miniature pigs) [mg per day]	MTD [3, 4] [mg/kg]	MTD ([3]; male, read-out: MTD (males)) [mg/kg]	Stab neutrophils (rats) [%]	effect on M1 receptors (M1 receptor)	other results
OCCOCCN1CCN(C2=Nc3ccccc3Sc3ccccc32)CC1 [quetiapine]	3.7	–	–	–	–	–	–	Therapeutic window width (Kb, D2/Kb, D4) (D4.4 receptor): 0.11
Clc1ccc2c(c1)N=C(N1CCNCC1)c1ccccc1N2 [Desmethylclozapine, desmethylclozapine, reference compound]	–	0.24	–	–	–	–	–	–
CN1CCN(C2=Nc3cc(Cl)c(F)cc3Nc3ccccc32)CC1 [Fluoroclozapine, 11-(4-methylpiperazine-1-yl)-7-fluoro-8-chloro-5H-dibenzo[b,e][1,4] diazepine]	–	0.63	450	6	5	3.2 ± 0.4	virtually no effect on M1 receptors	concentrations of fluoroclozapine and its metabolite desmethylfluoroclozapine in the brain [2]: comparable; metabolism [2]: metabolized to desmethylfluoroclozapine; concentrations for inhibition of H1 compared with inhibition of 5HT2A (times lower) (H1 receptor): approximately equal concentrations; minimum effective dose designed for patient (mice; depending on patient's body weight): 20-35 mg per day; minimum effective dose designed for patient (mice; extrapolated from ALI experiment): 0.5 mg/kg
CN1CCN(C2=Nc3cc(Cl)ccc3Nc3ccccc32)CC1 [Clozapine, clozapine, reference compound]	8.8	–	270	4.5	3	4.6 ± 0.7	–	total distance travelled / sedation (CF-1 mice; mouse, in vivo): significantly reduced; number of circulating neutrophils in the blood versus control group (rats): significant increase
Fc1cc2c(cc1Cl)N=C(N1CCNCC1)c1ccccc1N2 [Desmethylfluoroclozapine, 11-(piperazine-1-yl)-7-fluoro-8-chloro-5H-dibenzo[b,e][1,4]diazepine]	–	–	–	–	–	4.2 ± 0.4	is an agonist, and causes a significant response in the therapeutic drug concentration window	motion activity (CF-1 mice; CF-1 mice, oral 10 mg/kg): insignificant decrease in motion activity; Kb (5HT2A receptor; binding constant determined from IC50, antagonism setup): 16 nM; Therapeutic window width (Kb, D2/Kb, 5HT2A) (5HT2A receptor; ratio of binding constants): 34; activating concentration, times higher than that of clozapine (muscarinic M4 receptor): 290 times; activating concentration, times higher than that of desmethylclozapine (muscarinic M4 receptor): 30 times; Therapeutic window width (Kb, H1/Kb, 5HT2A) (H1 receptor; ratio of binding constants): 0.93

From US12403143B2, “Pharmaceutical composition for treating functional psychiatric disorders” (OBSCHESTVO S OGRANICHENNOI OTVETSTVENNOSTYU “VALENTEK”, priority 2016, dated 2025)
